From ChEMBL document CHEMBL1938371, “Discovery of AZD2932, a new Quinazoline Ether Inhibitor with high affinity for VEGFR-2 and PDGFR tyrosine kinases” (Bioorg Med Chem Lett, 2012)
The source made the active and inactive calls. The calls are words filed in the database; no cut-off is given here.

Tests used:
[1] = target: Platelet-derived growth factor receptor alpha (Homo sapiens) (UniProt P16234); assay: Inhibition of PDGFRalpha phosphorylation by cell based assay
[2] = target: Platelet-derived growth factor receptor beta (Homo sapiens, UniProt P09619); assay: Inhibition of PDGFRbeta phosphorylation by cell based assay
Sequence of Platelet-derived growth factor receptor beta (P09619 whole entry): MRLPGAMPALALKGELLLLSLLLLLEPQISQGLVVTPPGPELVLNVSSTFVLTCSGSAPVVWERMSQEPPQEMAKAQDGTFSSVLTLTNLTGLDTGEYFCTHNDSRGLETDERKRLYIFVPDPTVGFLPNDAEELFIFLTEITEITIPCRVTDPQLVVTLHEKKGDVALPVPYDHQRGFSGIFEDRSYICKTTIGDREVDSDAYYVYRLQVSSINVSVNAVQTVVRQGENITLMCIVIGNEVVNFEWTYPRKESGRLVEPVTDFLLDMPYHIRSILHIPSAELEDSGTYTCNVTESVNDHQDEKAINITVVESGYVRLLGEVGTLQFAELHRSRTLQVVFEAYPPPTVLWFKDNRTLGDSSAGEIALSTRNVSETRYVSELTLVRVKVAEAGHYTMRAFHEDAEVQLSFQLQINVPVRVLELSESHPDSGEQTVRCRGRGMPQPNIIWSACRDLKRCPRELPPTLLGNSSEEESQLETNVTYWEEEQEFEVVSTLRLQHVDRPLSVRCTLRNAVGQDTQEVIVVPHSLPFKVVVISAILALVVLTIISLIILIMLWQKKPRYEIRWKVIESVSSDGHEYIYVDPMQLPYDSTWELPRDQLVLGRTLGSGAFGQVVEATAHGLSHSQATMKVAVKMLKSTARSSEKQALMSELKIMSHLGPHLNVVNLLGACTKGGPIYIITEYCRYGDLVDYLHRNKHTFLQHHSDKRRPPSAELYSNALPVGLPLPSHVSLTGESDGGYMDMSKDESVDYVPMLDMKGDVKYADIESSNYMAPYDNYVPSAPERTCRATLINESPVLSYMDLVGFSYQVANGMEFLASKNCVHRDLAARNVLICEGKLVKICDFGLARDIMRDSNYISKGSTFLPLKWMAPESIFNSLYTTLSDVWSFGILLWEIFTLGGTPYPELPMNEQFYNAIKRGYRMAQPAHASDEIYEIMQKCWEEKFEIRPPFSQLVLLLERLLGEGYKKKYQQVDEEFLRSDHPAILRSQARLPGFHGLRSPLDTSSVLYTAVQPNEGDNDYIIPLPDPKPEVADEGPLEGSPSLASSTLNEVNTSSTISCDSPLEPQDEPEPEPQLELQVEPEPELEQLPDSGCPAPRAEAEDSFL

[3] = target: Vascular endothelial growth factor receptor 2 (Homo sapiens) (UniProt P35968); assay: Inhibition of VEGFR2 phosphorylation by cell based assay
[4] = target: T1, Receptor-type tyrosine-protein kinase FLT3 (Homo sapiens, UniProt P36888); assay: Inhibition of FLT3 phosphorylation by cell based assay
T1 sequence (P36888 whole entry): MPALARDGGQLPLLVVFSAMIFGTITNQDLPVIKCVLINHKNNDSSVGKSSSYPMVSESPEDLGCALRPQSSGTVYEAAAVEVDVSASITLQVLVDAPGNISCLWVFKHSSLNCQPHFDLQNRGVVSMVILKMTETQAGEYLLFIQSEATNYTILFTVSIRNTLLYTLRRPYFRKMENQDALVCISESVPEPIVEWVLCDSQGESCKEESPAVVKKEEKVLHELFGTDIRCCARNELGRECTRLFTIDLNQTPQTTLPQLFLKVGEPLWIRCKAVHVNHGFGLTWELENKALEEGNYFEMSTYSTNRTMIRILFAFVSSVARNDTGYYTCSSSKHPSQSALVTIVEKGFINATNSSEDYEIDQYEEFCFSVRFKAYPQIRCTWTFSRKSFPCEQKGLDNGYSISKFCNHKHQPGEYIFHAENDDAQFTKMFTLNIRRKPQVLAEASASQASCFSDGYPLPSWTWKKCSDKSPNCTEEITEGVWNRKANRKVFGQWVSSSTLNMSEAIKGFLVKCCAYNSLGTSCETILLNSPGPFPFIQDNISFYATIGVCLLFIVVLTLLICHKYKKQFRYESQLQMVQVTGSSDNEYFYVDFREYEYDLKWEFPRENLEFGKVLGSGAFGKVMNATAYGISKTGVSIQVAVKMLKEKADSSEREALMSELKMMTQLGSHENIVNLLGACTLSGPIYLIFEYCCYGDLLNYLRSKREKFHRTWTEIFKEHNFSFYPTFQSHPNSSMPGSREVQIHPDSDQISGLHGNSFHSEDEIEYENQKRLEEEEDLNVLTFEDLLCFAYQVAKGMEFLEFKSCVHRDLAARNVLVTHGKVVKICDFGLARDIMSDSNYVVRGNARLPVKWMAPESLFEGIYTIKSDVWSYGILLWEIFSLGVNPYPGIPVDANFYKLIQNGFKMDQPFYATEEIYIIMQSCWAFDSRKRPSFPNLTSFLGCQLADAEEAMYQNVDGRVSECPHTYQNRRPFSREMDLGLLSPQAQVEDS

[5] = Chemical stability of the compound at pH 1; assay type: physicochemical; details: buffer
[6] = Oral bioavailability in rat; assay type: ADME, organism-based; details: in vivo
[7] = target: Macrophage colony-stimulating factor 1 receptor (Homo sapiens, UniProt P07333); assay: Inhibition of CSF1R phosphorylation by cell based assay
Sequence of Macrophage colony-stimulating factor 1 receptor (P07333 whole entry): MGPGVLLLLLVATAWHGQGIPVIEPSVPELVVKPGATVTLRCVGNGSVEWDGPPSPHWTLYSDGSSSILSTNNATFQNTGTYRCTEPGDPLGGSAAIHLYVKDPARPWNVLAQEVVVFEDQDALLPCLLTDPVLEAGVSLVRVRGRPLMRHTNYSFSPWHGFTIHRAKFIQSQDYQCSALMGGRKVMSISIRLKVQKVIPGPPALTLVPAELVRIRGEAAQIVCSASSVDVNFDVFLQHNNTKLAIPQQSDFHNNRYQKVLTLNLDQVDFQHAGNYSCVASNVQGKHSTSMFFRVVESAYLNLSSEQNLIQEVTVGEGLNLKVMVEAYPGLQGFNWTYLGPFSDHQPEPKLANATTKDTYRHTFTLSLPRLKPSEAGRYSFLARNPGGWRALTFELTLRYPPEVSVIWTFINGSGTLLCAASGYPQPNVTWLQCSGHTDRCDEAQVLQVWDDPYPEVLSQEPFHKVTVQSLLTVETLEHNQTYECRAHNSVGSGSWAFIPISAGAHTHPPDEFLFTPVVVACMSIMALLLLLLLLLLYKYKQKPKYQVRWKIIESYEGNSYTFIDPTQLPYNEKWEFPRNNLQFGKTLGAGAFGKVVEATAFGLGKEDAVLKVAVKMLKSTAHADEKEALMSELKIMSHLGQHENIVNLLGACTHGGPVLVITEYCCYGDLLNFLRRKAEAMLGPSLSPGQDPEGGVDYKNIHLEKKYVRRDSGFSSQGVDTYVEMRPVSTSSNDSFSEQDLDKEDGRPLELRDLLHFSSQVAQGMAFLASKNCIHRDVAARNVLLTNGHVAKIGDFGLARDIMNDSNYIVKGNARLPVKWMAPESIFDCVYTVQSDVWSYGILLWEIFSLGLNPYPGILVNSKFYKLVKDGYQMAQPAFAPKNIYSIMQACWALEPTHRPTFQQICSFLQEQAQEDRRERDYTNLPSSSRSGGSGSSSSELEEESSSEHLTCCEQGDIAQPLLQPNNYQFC

Aurora kinase B = Aurora kinase B (Homo sapiens, UniProt Q96GD4); assay: Inhibition of aurora-B
Sequence of Aurora kinase B (Q96GD4 whole entry): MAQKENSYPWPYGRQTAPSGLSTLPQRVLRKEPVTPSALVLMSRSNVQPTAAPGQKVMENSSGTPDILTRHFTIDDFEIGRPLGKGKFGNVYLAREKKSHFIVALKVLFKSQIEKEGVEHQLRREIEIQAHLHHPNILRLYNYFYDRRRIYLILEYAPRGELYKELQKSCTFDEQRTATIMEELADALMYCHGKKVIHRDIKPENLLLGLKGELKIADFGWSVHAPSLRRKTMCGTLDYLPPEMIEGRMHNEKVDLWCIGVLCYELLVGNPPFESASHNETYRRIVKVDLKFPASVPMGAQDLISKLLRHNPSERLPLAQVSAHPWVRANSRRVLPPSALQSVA

[8] = target: Mast/stem cell growth factor receptor Kit (Homo sapiens) (UniProt P10721); assay: Inhibition of c-Kit
Sequence of Mast/stem cell growth factor receptor Kit (Homo sapiens) (P10721 whole entry): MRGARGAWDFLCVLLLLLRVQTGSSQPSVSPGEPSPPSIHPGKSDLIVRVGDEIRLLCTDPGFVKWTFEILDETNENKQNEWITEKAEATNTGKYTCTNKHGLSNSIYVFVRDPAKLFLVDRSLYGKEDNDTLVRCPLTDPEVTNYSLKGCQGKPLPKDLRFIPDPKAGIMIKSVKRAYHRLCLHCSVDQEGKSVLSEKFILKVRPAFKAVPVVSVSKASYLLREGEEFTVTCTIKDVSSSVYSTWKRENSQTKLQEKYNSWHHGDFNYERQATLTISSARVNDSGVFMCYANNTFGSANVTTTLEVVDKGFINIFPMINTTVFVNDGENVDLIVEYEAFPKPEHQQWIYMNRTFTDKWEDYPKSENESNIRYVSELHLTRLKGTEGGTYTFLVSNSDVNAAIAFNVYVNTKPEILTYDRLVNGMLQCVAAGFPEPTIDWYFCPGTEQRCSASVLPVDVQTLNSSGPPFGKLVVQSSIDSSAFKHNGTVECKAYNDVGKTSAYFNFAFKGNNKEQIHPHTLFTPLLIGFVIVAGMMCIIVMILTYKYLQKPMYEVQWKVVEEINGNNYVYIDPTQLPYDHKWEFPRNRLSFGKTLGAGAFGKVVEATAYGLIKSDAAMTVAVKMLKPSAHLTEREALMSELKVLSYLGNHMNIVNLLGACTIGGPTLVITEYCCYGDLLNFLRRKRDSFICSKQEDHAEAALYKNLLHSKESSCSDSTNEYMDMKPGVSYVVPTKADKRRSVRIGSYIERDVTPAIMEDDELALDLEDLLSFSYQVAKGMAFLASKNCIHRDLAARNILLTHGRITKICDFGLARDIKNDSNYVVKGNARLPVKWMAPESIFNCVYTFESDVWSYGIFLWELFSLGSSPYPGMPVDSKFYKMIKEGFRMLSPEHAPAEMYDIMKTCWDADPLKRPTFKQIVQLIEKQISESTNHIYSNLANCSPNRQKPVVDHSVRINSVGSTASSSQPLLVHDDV

Sequence of Platelet-derived growth factor receptor alpha (Homo sapiens) (P16234 whole entry): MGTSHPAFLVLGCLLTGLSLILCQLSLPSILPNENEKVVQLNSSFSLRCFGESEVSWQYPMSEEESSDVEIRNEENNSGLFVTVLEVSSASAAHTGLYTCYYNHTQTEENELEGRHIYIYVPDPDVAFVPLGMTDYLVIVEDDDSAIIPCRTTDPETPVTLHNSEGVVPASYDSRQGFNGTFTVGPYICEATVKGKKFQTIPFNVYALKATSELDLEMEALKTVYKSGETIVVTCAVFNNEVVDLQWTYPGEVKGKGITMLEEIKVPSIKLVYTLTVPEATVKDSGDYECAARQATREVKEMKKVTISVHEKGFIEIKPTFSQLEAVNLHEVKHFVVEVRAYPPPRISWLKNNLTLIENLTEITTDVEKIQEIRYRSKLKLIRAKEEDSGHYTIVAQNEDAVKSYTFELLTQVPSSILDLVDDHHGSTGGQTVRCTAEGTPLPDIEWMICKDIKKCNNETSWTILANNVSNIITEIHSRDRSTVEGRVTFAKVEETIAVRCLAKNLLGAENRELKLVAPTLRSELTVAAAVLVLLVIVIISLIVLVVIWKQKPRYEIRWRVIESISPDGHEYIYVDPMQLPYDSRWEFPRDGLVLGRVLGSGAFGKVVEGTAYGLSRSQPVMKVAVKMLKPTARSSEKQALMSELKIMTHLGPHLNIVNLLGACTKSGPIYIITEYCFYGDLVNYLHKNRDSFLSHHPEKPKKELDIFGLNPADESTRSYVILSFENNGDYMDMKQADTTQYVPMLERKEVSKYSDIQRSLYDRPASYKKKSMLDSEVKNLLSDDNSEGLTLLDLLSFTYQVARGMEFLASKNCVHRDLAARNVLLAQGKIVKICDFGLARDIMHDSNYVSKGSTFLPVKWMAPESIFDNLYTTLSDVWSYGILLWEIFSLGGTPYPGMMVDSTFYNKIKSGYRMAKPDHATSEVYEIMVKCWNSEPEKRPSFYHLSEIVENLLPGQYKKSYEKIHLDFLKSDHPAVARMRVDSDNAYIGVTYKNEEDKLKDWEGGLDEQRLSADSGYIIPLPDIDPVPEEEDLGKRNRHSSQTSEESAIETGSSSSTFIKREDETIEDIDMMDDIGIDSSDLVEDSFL

inhibition [1]	IC50 [2]	IC50 [3]	IC50 [4]	Stability [5]	bioavailability [6]	IC50 [7]	IC50 (Aurora kinase B)	inhibition [8]	Structure (SMILES)
Active	2 nM	< 5 nM	3 nM	0.1 days	< 20%	90 nM	–	–	COCCOc1cc2c(Oc3cnn(CC(=O)Nc4cccc(OC)c4)c3)ncnc2cc1OC
Active	0.4 nM	12 nM	4 nM	–	–	40 nM	–	–	CCn1cc(NC(=O)Cc2ccc(Oc3ccnc4cc(OC)c(OC)cc34)cc2)cn1
Active	300 nM	6140 nM	> 1000 nM	–	–	> 1000 nM	–	–	COc1cccc(C(=O)NCc2ccc(Oc3ncnc4cc(OC)c(OC)cc34)cc2)c1
Active	> 2000 nM	> 10000 nM	> 800 nM	–	–	> 1000 nM	–	–	COc1cc2ncnc(Oc3ccc(CC(=O)Nc4cn[nH]c4)cc3)c2cc1OC
Active	10 nM	172 nM	20 nM	–	–	> 1000 nM	–	–	CCn1ccc(NC(=O)Cc2ccc(Oc3ncnc4cc(OC)c(OC)cc34)cc2)n1
Active	10 nM	51 nM	4 nM	0.1 days	< 20%	> 1000 nM	< 0.2 nM	–	COc1cc2ncnc(Nc3cnn(CC(=O)Nc4cccc(F)c4)c3)c2cc1OC
Active	700 nM	3060 nM	> 400 nM	–	–	> 1000 nM	–	–	COc1cccc(CNC(=O)c2ccc(Oc3ncnc4cc(OC)c(OC)cc34)cc2)c1
Active	2 nM	282 nM	40 nM	0.1 days	< 20%	50 nM	–	–	COc1cccc(NC(=O)Cn2cc(Oc3ccnc4cc(OC)c(C#N)cc34)cn2)c1
Active	1 nM	7 nM	5 nM	0.1 days	< 20%	30 nM	–	–	COc1cccc(NC(=O)Cn2cc(Oc3ncnc4cc(OCCN5CCCC5)c(OC)cc34)cn2)c1
Active	0.3 nM	0.2 nM	2 nM	0.1 days	< 20%	8 nM	–	–	COCCOc1cc2ncnc(Oc3cnn(CC(=O)Nc4cccc(OC)c4)c3)c2cc1OC
Active	4 nM	< 5 nM	5 nM	–	–	> 600 nM	–	–	CCc1cc(NC(=O)Cc2ccc(Oc3ncnc4cc(OC)c(OC)cc34)cc2)n[nH]1
Active	6 nM	101 nM	4 nM	0.1 days	< 20%	600 nM	> 10 nM	–	COc1cc2ncnc(Nc3cnn(CC(=O)Nc4ccc(N(C)C)cc4)c3)c2cc1OC
Active	10 nM	25 nM	> 20 nM	0.1 days	< 20%	> 900 nM	> 10 nM	–	COc1cccc(NC(=O)Cn2cc(Nc3ncnc4cc(OC)c(OC)cc34)cn2)c1
Active	40 nM	667 nM	80 nM	–	–	> 1000 nM	–	–	COc1cc2ncnc(Oc3ccc(CC(=O)Nc4cnn(C)c4)cc3)c2cc1OC
Active	> 200 nM	453 nM	10 nM	0.1 days	< 20%	> 1000 nM	–	–	COc1cc2ncnc(Nc3cnn(CC(=O)Nc4ccc(N(C)C)cn4)c3)c2cc1OC
Active	9 nM	177 nM	8 nM	–	–	> 1000 nM	–	–	COc1cccc(NC(=O)NCc2ccc(Oc3ncnc4cc(OC)c(OC)cc34)cc2)c1
Active	20 nM	128 nM	20 nM	–	–	300 nM	–	–	COc1cccc(COc2ccc(Oc3ncnc4cc(OC)c(OC)cc34)cc2)c1
Active	> 1000 nM	> 10000 nM	> 1000 nM	–	–	> 1000 nM	–	inactive	CCn1cc(NC(=O)Cc2cc(Oc3ccnc4cc(OC)c(OC)cc34)n[nH]2)cn1
Active	0.8 nM	0.4 nM	2 nM	0.1 days	< 20%	10 nM	–	–	COc1cccc(NC(=O)Cn2cc(Oc3ncnc4cc(OC)c(OC)cc34)cn2)c1
Active	2 nM	30 nM	5 nM	0.1 days	< 20%	100 nM	–	–	COc1cccc(NC(=O)Cn2cc(Oc3ncnc4cc(OC)cc(OC)c34)cn2)c1
Active	0.9 nM	8 nM	7 nM	–	–	300 nM	–	–	COc1cccc(NC(=O)Cc2ccc(Oc3ncnc4cc(OC)c(OC)cc34)cc2)c1
Active	2 nM	57 nM	20 nM	0.1 days	< 20%	40 nM	–	–	COc1cccc(NC(=O)Cn2cc(Oc3ccnc4cc(OC)c(OC)cc34)cn2)c1
Active	> 1000 nM	> 10000 nM	> 1000 nM	–	–	> 1000 nM	–	–	COc1cccc(S(=O)(=O)NCc2ccc(Oc3ncnc4cc(OC)c(OC)cc34)cc2)c1
Active	10 nM	175 nM	> 60 nM	–	–	> 1000 nM	–	–	COc1cccc(NC(=O)Cc2ccc(Nc3ncnc4cc(OC)c(OC)cc34)cc2)c1
Active	4 nM	209 nM	10 nM	–	–	30 nM	–	–	COc1cccc(CC(=O)Nc2ccc(Oc3ncnc4cc(OC)c(OC)cc34)cc2)c1
Active	3 nM	39 nM	3 nM	0.1 days	< 20%	20 nM	–	–	COc1cc2ncnc(Oc3cnn(CC(=O)Nc4ccc(N(C)C)cn4)c3)c2cc1OC
Active	4 nM	35 nM	4 nM	0.1 days	< 20%	200 nM	–	–	CCn1cc(NC(=O)Cn2cc(Oc3ncnc4cc(OC)c(OC)cc34)cn2)cn1
Active	3 nM	29 nM	10 nM	–	–	> 800 nM	–	–	CCn1cc(NC(=O)Cc2ccc(Oc3ncnc4cc(OC)c(OC)cc34)cc2)cn1
Active	300 nM	1010 nM	> 1000 nM	–	–	> 1000 nM	–	–	COc1cccc(NC(=O)Cc2cccc(Oc3ncnc4cc(OC)c(OC)cc34)c2)c1
Active	5 nM	22 nM	9 nM	–	–	600 nM	–	–	COc1cc2ncnc(Oc3ccc(CC(=O)Nc4ccc(N(C)C)cn4)cc3)c2cc1OC
